Here are results for 23 substances from the OligoGym collection.

Values joined by “and” are separate entries in the source; they are usually repeats but may differ in a detail not shown here. Equal entries are not always repeated. HELM strings list units from the 5' end as sugar, base in round brackets, then linkage (d deoxyribose, r ribose, m 2'-O-methyl, p phosphodiester). Strings are as the collection lists them; they lack the last nucleoside at the 3' end of the tested compound. [moe] = 2'-O-(2-methoxyethyl) (MOE); [sp] = phosphorothioate linkage; [m5C] = 5-methylcytosine

In this data set the target is SMN2. Briefly: mouse, dose not given. As to conditions: ASO.
“RNA1{[moe](A)[sp].[moe](T)[sp].[moe](T)[sp].[moe]([m5C])[sp].[moe](A)[sp].[moe]([m5C])[sp].[moe](T)[sp].[moe](T)[sp].[moe](T)[sp].[moe]([m5C])[sp].[moe](A)[sp].[moe](T)[sp].[moe](A)[sp].[moe](A)[sp].[moe](T)[sp].[moe](G)[sp].[moe]([m5C])[sp].[moe](T)}$$$$ (last 3' nucleoside missing)” showed a 3 h FOB score of 3.5 score 0-7.

In turn, “RNA1{[moe]([m5C])[sp].[moe](T)p.[moe](T)p.[moe](T)p.[moe]([m5C])[sp].[moe](A)[sp].[moe](T)[sp].[moe](A)[sp].[moe](A)[sp].[moe](T)[sp].[moe](G)[sp].[moe]([m5C])p.[moe](T)p.[moe](G)[sp].[moe](G)}$$$$ (last 3' nucleoside missing)” displayed a 3 h FOB score of 0 score 0-7.

With “RNA1{[moe](T)[sp].[moe]([m5C])[sp].[moe](A)[sp].[moe]([m5C])[sp].[moe](T)[sp].[moe](T)[sp].[moe](T)[sp].[moe]([m5C])[sp].[moe](A)[sp].[moe](T)[sp].[moe](A)[sp].[moe](A)[sp].[moe](T)[sp].[moe](G)[sp].[moe]([m5C])p.[moe](T)[sp].[moe](G)[sp].[moe](G)}$$$$ (last 3' nucleoside missing)”, the 3 h FOB score is 2.25 score 0-7 (2×) and 2.5 score 0-7 and 2 score 0-7.

“RNA1{[moe](T)[sp].[moe]([m5C])[sp].[moe](A)[sp].[moe]([m5C])[sp].[moe](T)[sp].[moe](T)[sp].[moe](T)[sp].[moe]([m5C])[sp].[moe](A)[sp].[moe](T)[sp].[moe](A)[sp].[moe](A)[sp].[moe](T)p.[moe](G)[sp].[moe]([m5C])p.[moe](T)[sp].[moe](G)}$$$$ (last 3' nucleoside missing)” yielded a 3 h FOB score of 3 score 0-7.

Substance “RNA1{[moe]([m5C])[sp].[moe](A)[sp].[moe]([m5C])[sp].[moe](T)[sp].[moe](T)[sp].[moe](T)[sp].[moe]([m5C])p.[moe](A)p.[moe](T)p.[moe](A)p.[moe](A)p.[moe](T)p.[moe](G)[sp].[moe]([m5C])[sp].[moe](T)[sp].[moe](G)[sp].[moe](G)}$$$$ (last 3' nucleoside missing)” gave a 3 h FOB score of 0 score 0-7.

In turn, “RNA1{[moe]([m5C])[sp].[moe](A)[sp].[moe]([m5C])[sp].[moe](T)p.[moe](T)p.[moe](T)[sp].[moe]([m5C])[sp].[moe](A)[sp].[moe](T)[sp].[moe](A)[sp].[moe](A)[sp].[moe](T)[sp].[moe](G)[sp].[moe]([m5C])[sp].[moe](T)[sp].[moe](G)[sp].[moe](G)}$$$$ (last 3' nucleoside missing)” came in with a 3 h FOB score of 0 score 0-7.

On to “RNA1{[moe](A)[sp].[moe]([m5C])[sp].[moe](T)[sp].[moe](T)[sp].[moe](T)[sp].[moe]([m5C])[sp].[moe](A)[sp].[moe](T)[sp].[moe](A)[sp].[moe](A)[sp].[moe](T)p.[moe](G)p.[moe]([m5C])p.[moe](T)p.[moe](G)[sp].[moe](G)}$$$$ (last 3' nucleoside missing)”, for which the 3 h FOB score was 0 score 0-7.

Regarding “RNA1{[moe]([m5C])[sp].[moe](A)[sp].[moe]([m5C])[sp].[moe](T)[sp].[moe](T)[sp].[moe](T)[sp].[moe]([m5C])p.[moe](A)p.[moe](T)p.[moe](A)p.[moe](A)[sp].[moe](T)[sp].[moe](G)[sp].[moe]([m5C])[sp].[moe](T)[sp].[moe](G)[sp].[moe](G)}$$$$ (last 3' nucleoside missing)”, the 3 h FOB score came to 0 score 0-7.

Take “RNA1{[moe]([m5C])[sp].[moe](T)[sp].[moe](T)p.[moe](T)[sp].[moe]([m5C])p.[moe](A)[sp].[moe](T)p.[moe](A)[sp].[moe](A)p.[moe](T)[sp].[moe](G)p.[moe]([m5C])[sp].[moe](T)p.[moe](G)[sp].[moe](G)}$$$$ (last 3' nucleoside missing)”: the 3 h FOB score was 0.25 score 0-7.

Regarding “RNA1{[moe]([m5C])[sp].[moe](A)[sp].[moe]([m5C])[sp].[moe](T)[sp].[moe](T)[sp].[moe](T)[sp].[moe]([m5C])[sp].[moe](A)[sp].[moe](T)[sp].[moe](A)p.[moe](A)p.[moe](T)[sp].[moe](G)[sp].[moe]([m5C])[sp].[moe](T)[sp].[moe](G)[sp].[moe](G)}$$$$ (last 3' nucleoside missing)”, the 3 h FOB score was 1 score 0-7.

Substance “RNA1{[moe]([m5C])[sp].[moe](A)[sp].[moe]([m5C])[sp].[moe](T)[sp].[moe](T)[sp].[moe](T)[sp].[moe]([m5C])[sp].[moe](A)[sp].[moe](T)[sp].[moe](A)[sp].[moe](A)[sp].[moe](T)p.[moe](G)p.[moe]([m5C])p.[moe](T)p.[moe](G)[sp].[moe](G)}$$$$ (last 3' nucleoside missing)” showed a 3 h FOB score of 0 score 0-7.

On to “RNA1{[moe](T)[sp].[moe]([m5C])p.[moe](A)[sp].[moe]([m5C])[sp].[moe](T)[sp].[moe](T)[sp].[moe](T)[sp].[moe]([m5C])[sp].[moe](A)p.[moe](T)[sp].[moe](A)[sp].[moe](A)[sp].[moe](T)[sp].[moe](G)[sp].[moe]([m5C])[sp].[moe](T)[sp].[moe](G)}$$$$ (last 3' nucleoside missing)”, for which the 3 h FOB score came out at 4 score 0-7.

Substance “RNA1{[moe](T)[sp].[moe]([m5C])[sp].[moe](A)[sp].[moe]([m5C])[sp].[moe](T)[sp].[moe](T)p.[moe](T)[sp].[moe]([m5C])[sp].[moe](A)[sp].[moe](T)[sp].[moe](A)[sp].[moe](A)[sp].[moe](T)[sp].[moe](G)[sp].[moe]([m5C])[sp].[moe](T)[sp].[moe](G)}$$$$ (last 3' nucleoside missing)” registered a 3 h FOB score of 4 score 0-7.

“RNA1{[moe](T)[sp].[moe]([m5C])[sp].[moe](A)[sp].[moe]([m5C])[sp].[moe](T)[sp].[moe](T)[sp].[moe](T)[sp].[moe]([m5C])[sp].[moe](A)[sp].[moe](T)p.[moe](A)[sp].[moe](A)[sp].[moe](T)[sp].[moe](G)[sp].[moe]([m5C])[sp].[moe](T)[sp].[moe](G)}$$$$ (last 3' nucleoside missing)” displayed a 3 h FOB score of 3 score 0-7.

“RNA1{[moe]([m5C])[sp].[moe](A)[sp].[moe]([m5C])[sp].[moe](T)[sp].[moe](T)[sp].[moe](T)[sp].[moe]([m5C])[sp].[moe](A)p.[moe](T)p.[moe](A)p.[moe](A)p.[moe](T)[sp].[moe](G)[sp].[moe]([m5C])[sp].[moe](T)[sp].[moe](G)[sp].[moe](G)}$$$$ (last 3' nucleoside missing)”: the 3 h FOB score amounted to 0 score 0-7.

In turn, “RNA1{[moe](T)[sp].[moe]([m5C])[sp].[moe](A)[sp].[moe]([m5C])[sp].[moe](T)[sp].[moe](T)[sp].[moe](T)[sp].[moe]([m5C])[sp].[moe](A)[sp].[moe](T)[sp].[moe](A)[sp].[moe](A)[sp].[moe](T)[sp].[moe](G)[sp].[moe]([m5C])[sp].[moe](T)[sp].[moe](G)[sp].[moe](G)[sp].[moe]([m5C])}$$$$ (last 3' nucleoside missing)” yielded a 3 h FOB score of 0 score 0-7.

In turn, “RNA1{[moe]([m5C])[sp].[moe](A)p.[moe]([m5C])[sp].[moe](T)[sp].[moe](T)[sp].[moe](T)[sp].[moe]([m5C])[sp].[moe](A)p.[moe](T)[sp].[moe](A)[sp].[moe](A)[sp].[moe](T)[sp].[moe](G)[sp].[moe]([m5C])[sp].[moe](T)[sp].[moe](G)[sp].[moe](G)}$$$$ (last 3' nucleoside missing)” had a 3 h FOB score of 1 score 0-7.

Consider “RNA1{[moe]([m5C])[sp].[moe](A)p.[moe]([m5C])p.[moe](T)p.[moe](T)p.[moe](T)[sp].[moe]([m5C])[sp].[moe](A)[sp].[moe](T)[sp].[moe](A)[sp].[moe](A)[sp].[moe](T)[sp].[moe](G)p.[moe]([m5C])p.[moe](T)p.[moe](G)[sp].[moe](G)}$$$$ (last 3' nucleoside missing)”, for which the 3 h FOB score stood at 0 score 0-7.

As for “RNA1{[moe](T)p.[moe](T)[sp].[moe]([m5C])[sp].[moe](A)[sp].[moe]([m5C])[sp].[moe](T)[sp].[moe](T)[sp].[moe](T)[sp].[moe]([m5C])[sp].[moe](A)[sp].[moe](T)[sp].[moe](A)[sp].[moe](A)[sp].[moe](T)[sp].[moe](G)[sp].[moe]([m5C])[sp].[moe](T)[sp].[moe](G)}$$$$ (last 3' nucleoside missing)”, the 3 h FOB score was 4 score 0-7.

Substance “RNA1{[moe]([m5C])[sp].[moe](A)[sp].[moe]([m5C])[sp].[moe](T)[sp].[moe](T)[sp].[moe](T)[sp].[moe]([m5C])[sp].[moe](A)[sp].[moe](T)[sp].[moe](A)[sp].[moe](A)[sp].[moe](T)[sp].[moe](G)[sp].[moe]([m5C])[sp].[moe](T)[sp].[moe](G)[sp].[moe](G)[sp].[moe]([m5C])}$$$$ (last 3' nucleoside missing)” displayed a 3 h FOB score of 0 score 0-7.

For “RNA1{[moe](A)[sp].[moe]([m5C])[sp].[moe](T)[sp].[moe](T)[sp].[moe](T)[sp].[moe]([m5C])[sp].[moe](A)p.[moe](T)p.[moe](A)p.[moe](A)p.[moe](T)p.[moe](G)[sp].[moe]([m5C])[sp].[moe](T)[sp].[moe](G)[sp].[moe](G)}$$$$ (last 3' nucleoside missing)”, the 3 h FOB score stood at 0 score 0-7.

As for “RNA1{[moe](T)[sp].[moe]([m5C])p.[moe](A)[sp].[moe]([m5C])p.[moe](T)[sp].[moe](T)[sp].[moe](T)[sp].[moe]([m5C])[sp].[moe](A)[sp].[moe](T)[sp].[moe](A)[sp].[moe](A)[sp].[moe](T)[sp].[moe](G)[sp].[moe]([m5C])[sp].[moe](T)[sp].[moe](G)}$$$$ (last 3' nucleoside missing)”, the 3 h FOB score was 3.75 score 0-7.

For “RNA1{[moe](T)[sp].[moe](T)[sp].[moe]([m5C])[sp].[moe](A)[sp].[moe]([m5C])[sp].[moe](T)[sp].[moe](T)[sp].[moe](T)[sp].[moe]([m5C])[sp].[moe](A)[sp].[moe](T)[sp].[moe](A)[sp].[moe](A)[sp].[moe](T)[sp].[moe](G)[sp].[moe]([m5C])p.[moe](T)[sp].[moe](G)}$$$$ (last 3' nucleoside missing)”, the 3 h FOB score was determined as 1.75 score 0-7.
